This passage reports IC50 results from US12441703B2, “Carboxamides as modulators of sodium channels” (VERTEX PHARMACEUTICALS INCORPORATED, priority 2019, dated 2025).

The assay addresses human NaV 1.8 (Homo sapiens, UniProt Q9Y5Y9). The assay is described as follows: E-VIPR assay for detecting and measuring NaV inhibition properties. Type of assay: cell-based. Conditions: E-VIPR assay conducted in the presence of human serum; HEK cells expressing truncated human NaV 1.8; read-out: IC50. The source says: Sodium ion channels are voltage-dependent proteins that can be activated by inducing membrane voltage changes by applying electric fields. The electrical stimulation instrument and methods of use, referred to as E-VIPR, are described in International Publication No. WO 2002/008748 A3 and C.-J. Huang et al. Characterization of voltage-gated sodium channel blockers by electrical stimulation and fluorescence detection of membrane potential, 24 Nature Biotech. 439-46 (2006), both of which are incorporated by reference in their entirety. The instrument comprises a microtiter plate handler, an optical system for exciting the coumarin dye while simultaneously recording the coumarin and oxonol emissions, a waveform generator, a current- or voltage-controlled amplifier, and parallel electrode pairs that are inserted into assay plate wells. Under integrated computer control, this instrument passes user-programmed electrical stimulus protocols to cells within the wells of the microtiter plate.
16-20 hours prior to running the assay on E-VIPR, HEK cells expressing a truncated form of human NaV 1.8 with full channel activity were seeded into microtiter 384-well plates, pre-coated with matrigel, at a density of 25,000 cells per well. 2.5-5% KIR2.1 Bacmam virus was added to the final cell suspension before seeding into cell plates. HEK cells were grown in Dulbecco's Modified Eagle's Medium (DMEM) supplemented with 10% FBS (Fetal Bovine Serum, qualified; Sigma #F4135), 1% NEAA (Non-Essential Amino Acids, Gibco #11140), 1% HEPES (Gibco #15630), 1% Pen-Strep (Penicillin-Streptomycin; Gibco #15140) and 5 μg/ml Blasticidin (Gibco #R210-01). Cells were expanded in vented cap cell culture flasks, with 90-95% humidity and 5% CO2.
Compound Loading Buffer (2× concentration): Na/TMA Cl Bath1 Buffer containing HS (omitted in experiments run in the absence of human serum (HS)) 50%, VABSC-1 1 mM, BSA 0.2 mg/ml (in Bath-1), KCl 9 mM, DMSO 0.75%.
• 1) To reach the final concentration in each well, 400 nL of each compound was pre-spotted (in neat DMSO) into polypropylene compound plates at 250× desired final concentration from an intermediate stock concentration of 0.075 mM, in an 11 point dose response, 3-fold dilution, resulting in a top dose of 300 nM final concentration in the cell plate. Vehicle control (neat DMSO), and positive control (an established NaV1.8 inhibitor, 25 μM final in assay in DMSO) were added manually to the outermost columns of each plate respectively. The compound plate was backfilled with 45 μL per well of Compound Loading Buffer resulting in a 250 fold dilution of compound following a 1:1 transfer of compound into the cell plate (see Step 6). Final DMSO concentration for all wells in the assay was 0.625% (0.75% DMSO was supplemented to the Compound Loading Buffer for a final DMSO concentration of 0.625%). This assay dilution protocol was adjusted to enable a higher dose range to be tested in the presence of HS or if the final assay volume was altered. • 2) Hexyl Dye Solution was prepared. • 3) Cell plates were prepared. On the day of the assay, the media was aspirated, and the cells were washed three times with 80 μL of Bath-1 buffer, maintaining 25 μL residual volume in each well. • 4) 25 μL per well of Hexyl Dye Solution was dispensed into the cell plates. The cells were incubated for 20 minutes at room temperature or ambient conditions in darkness. • 5) 45 μL per well of Compound Loading Buffer was dispensed into compound plates. • 6) The cell plates were washed three times with 80 μL per well of Bath-1 Buffer, leaving 25 µL of residual volume. Then 25 μL per well from compound plate was transferred to each cell plate. The mixture was incubated for 30 minutes at room temperature/ambient conditions. • 7) The cell plate containing compound was read on E-VIPR using the current-controlled amplifier to deliver stimulation wave pulses using a symmetrical biphasic waveform. […]

human NaV 1.8, sequence (Q9Y5Y9 whole entry, looked up, the tested form may be a part): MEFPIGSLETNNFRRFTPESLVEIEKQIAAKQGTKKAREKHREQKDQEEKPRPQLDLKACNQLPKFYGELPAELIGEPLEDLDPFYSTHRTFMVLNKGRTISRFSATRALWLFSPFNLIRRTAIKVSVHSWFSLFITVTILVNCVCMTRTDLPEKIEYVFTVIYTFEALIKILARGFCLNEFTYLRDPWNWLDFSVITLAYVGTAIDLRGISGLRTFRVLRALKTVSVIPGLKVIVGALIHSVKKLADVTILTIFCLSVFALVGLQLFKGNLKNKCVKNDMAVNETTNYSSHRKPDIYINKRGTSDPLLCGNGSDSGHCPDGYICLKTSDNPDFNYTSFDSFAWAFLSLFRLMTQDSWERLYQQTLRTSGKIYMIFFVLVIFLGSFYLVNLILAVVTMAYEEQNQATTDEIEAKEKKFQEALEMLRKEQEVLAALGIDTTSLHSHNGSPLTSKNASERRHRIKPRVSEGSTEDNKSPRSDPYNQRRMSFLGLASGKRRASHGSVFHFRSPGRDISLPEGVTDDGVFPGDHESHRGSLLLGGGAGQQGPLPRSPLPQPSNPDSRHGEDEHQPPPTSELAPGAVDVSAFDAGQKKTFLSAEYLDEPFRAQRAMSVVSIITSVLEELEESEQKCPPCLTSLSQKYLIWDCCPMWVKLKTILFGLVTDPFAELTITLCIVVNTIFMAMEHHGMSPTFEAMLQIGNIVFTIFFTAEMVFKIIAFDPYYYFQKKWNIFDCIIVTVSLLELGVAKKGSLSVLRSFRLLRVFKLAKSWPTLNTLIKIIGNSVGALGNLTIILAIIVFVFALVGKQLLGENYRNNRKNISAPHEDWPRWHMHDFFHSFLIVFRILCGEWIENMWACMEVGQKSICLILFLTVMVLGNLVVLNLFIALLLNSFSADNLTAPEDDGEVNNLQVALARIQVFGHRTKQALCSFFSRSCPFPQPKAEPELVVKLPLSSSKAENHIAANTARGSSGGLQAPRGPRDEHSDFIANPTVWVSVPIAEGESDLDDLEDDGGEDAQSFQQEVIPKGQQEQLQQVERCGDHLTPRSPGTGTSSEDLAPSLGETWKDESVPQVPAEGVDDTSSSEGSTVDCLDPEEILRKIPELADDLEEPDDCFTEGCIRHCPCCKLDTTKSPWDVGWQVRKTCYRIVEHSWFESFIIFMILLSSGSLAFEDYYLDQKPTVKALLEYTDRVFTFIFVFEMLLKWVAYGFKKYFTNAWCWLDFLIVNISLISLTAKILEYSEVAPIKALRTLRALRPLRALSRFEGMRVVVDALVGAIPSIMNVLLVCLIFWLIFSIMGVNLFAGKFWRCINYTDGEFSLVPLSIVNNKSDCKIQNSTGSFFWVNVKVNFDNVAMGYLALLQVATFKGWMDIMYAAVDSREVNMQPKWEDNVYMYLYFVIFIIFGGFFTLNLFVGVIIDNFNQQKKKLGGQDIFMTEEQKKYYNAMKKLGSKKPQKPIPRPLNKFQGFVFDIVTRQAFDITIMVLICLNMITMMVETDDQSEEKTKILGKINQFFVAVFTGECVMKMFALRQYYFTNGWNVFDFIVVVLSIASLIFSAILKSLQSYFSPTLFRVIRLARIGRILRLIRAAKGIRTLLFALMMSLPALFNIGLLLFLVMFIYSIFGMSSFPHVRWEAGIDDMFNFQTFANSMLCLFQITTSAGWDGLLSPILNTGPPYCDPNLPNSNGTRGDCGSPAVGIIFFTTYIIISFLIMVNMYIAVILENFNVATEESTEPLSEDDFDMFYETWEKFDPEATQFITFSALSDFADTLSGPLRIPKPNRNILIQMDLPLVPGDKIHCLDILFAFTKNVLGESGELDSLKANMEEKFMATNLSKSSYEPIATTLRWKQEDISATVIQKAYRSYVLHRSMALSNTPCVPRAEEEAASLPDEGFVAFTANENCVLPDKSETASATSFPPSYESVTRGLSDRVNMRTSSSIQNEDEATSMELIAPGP

As a reminder, the IC50 is the concentration that gives 50% inhibition. Regarding `CCOc1ccc(Oc2ccc(C(F)(F)F)c(C)c2C(=O)Nc2ccnc(C(N)=O)c2)c(F)c1F` [Compound 130, 4-[[6-(4-ethoxy-2,3-difluoro-phenoxy)-2-methyl-3-(trifluoromethyl)benzoyl]amino]pyridine-2-carboxamide], the IC50 came to 40 nM.

Regarding `Cc1cc(F)ccc1Oc1ccc(C(F)(F)F)cc1C(=O)Nc1ccnc(C(N)=O)c1` [Compound 4, 4-[[2-(4-fluoro-2-methyl-phenoxy)-5-(trifluoromethyl)benzoyl]amino]pyridine-2-carboxamide], the IC50 came to 650 nM.

In the case of `COc1cc(OC(F)(F)F)ccc1Oc1ccc(C2CC2)c(C)c1C(=O)Nc1ccnc(C(N)=O)c1` [Compound 181, 4-[[3-cyclopropyl-6-[2-methoxy-4-(trifluoromethoxy)phenoxy]-2-methyl-benzoyl]amino]pyridine-2-carboxamide], the IC50 came to 12 nM.

Consider `COc1cc(OC(F)(F)F)ccc1Oc1cc(C2CC2)c(C2CC2)nc1C(=O)Nc1ccnc(C(N)=O)c1` [Compound 201, N-(2-carbamoyl-4-pyridyl)-5,6-dicyclopropyl-3-[2-methoxy-4-(trifluoromethoxy)phenoxy]pyridine-2-carboxamide], for which the IC50 was determined as 530 nM.

For `COc1c(F)cccc1Oc1ccc(C(F)(F)F)cc1C(=O)Nc1ccnc(C(N)=O)c1` [Compound 12, 4-[[2-(3-fluoro-2-methoxy-phenoxy)-5-(trifluoromethyl)benzoyl]amino]pyridine-2-carboxamide], the IC50 was found to be 2100 nM.

`[2H]C([2H])([2H])Oc1cc(OC(F)(F)F)ccc1Oc1cc(C2CCCCC2)cc(F)c1C(=O)Nc1ccnc(C(N)=O)c1` [Compound 97]: the IC50 came to 14 nM.

`COc1cc(OC(F)(F)F)ccc1Oc1cc(OC)c(Cl)c(C)c1C(=O)Nc1ccnc(C(N)=O)c1` [Compound 265, 4-[[3-chloro-4-methoxy-6-[2-methoxy-4-(trifluoromethoxy)phenoxy]-2-methyl-benzoyl]amino]pyridine-2-carboxamide]: the concentration for half-maximal inhibition (IC50) came to 35 nM.

Consider `[2H]C([2H])([2H])Oc1cc(OC(F)(F)F)ccc1Oc1cc(-c2ccncc2)cc(F)c1C(=O)Nc1ccnc(C(N)=O)c1` [Compound 91, 4-[[2-fluoro-4-(4-pyridyl)-6-[2-(trideuteriomethoxy)-4-(trifluoromethoxy)phenoxy]benzoyl]amino]pyridine-2-carboxamide], for which the IC50 was found to be 440 nM.

With `NC(=O)c1cc(NC(=O)c2c(Oc3ccc(OC(F)(F)F)cc3C3CC3)ccc(C(F)(F)F)c2F)ccn1` [Compound 41, 4-[[6-[2-cyclopropyl-4-(trifluoromethoxy)phenoxy]-2-fluoro-3-(trifluoromethyl)benzoyl]amino]pyridine-2-carboxamide], the IC50 came out at 10 nM.

Consider `[2H]C([2H])([2H])Oc1cc(OC(F)(F)F)ccc1Oc1cc(C2CCC(F)(F)CC2)cc(F)c1C(=O)Nc1ccnc(C(N)=O)c1` [Compound 98], for which the IC50 is 23 nM.

Turning to `[2H]C([2H])([2H])Oc1cc(OC(F)(F)F)ccc1Oc1cc(C2=CCC(F)(F)CC2)cc(F)c1C(=O)Nc1ccnc(C(N)=O)c1` [Compound 1003, 4-[[4-(4,4-difluorocyclohexen-1-yl)-2-fluoro-6-[2-(trideuteriomethoxy)-4-(trifluoromethoxy)phenoxy]benzoyl]amino]pyridine-2-carboxamide], the IC50 was found to be 26 nM.

As for `CC(F)(F)c1cc(F)ccc1Oc1ccc(C(F)(F)F)c(F)c1C(=O)Nc1ccnc(C(N)=O)c1` [Compound 36, 4-[[6-[2-(1,1-difluoroethyl)-4-fluoro-phenoxy]-2-fluoro-3-(trifluoromethyl)benzoyl]amino]pyridine-2-carboxamide], the IC50 was determined as 180 nM.

For `COc1c(C(F)(F)F)ccc(Oc2ccc(F)c(F)c2)c1C(=O)Nc1ccnc(C(N)=O)c1` [Compound 55, 4-[[6-(3,4-difluorophenoxy)-2-methoxy-3-(trifluoromethyl)benzoyl]amino]pyridine-2-carboxamide], the IC50 stood at 420 nM.

In the case of `COc1cc(OC(F)(F)F)ccc1Oc1ccc(C(F)F)c(C)c1C(=O)Nc1ccnc(C(N)=O)c1` [Compound 244, 4-[[3-(difluoromethyl)-6-[2-methoxy-4-(trifluoromethoxy)phenoxy]-2-methyl-benzoyl]amino]pyridine-2-carboxamide], the IC50 was 17 nM.

`[2H]C([2H])([2H])Oc1cc(OC(F)(F)F)ccc1Oc1cc(C2=CCCCC2)cc(F)c1C(=O)Nc1ccnc(C(N)=O)c1` [Compound 1001, 4-[[4-(cyclohexen-1-yl)-2-fluoro-6-[2-(trideuteriomethoxy)-4-(trifluoromethoxy)phenoxy]benzoyl]amino]pyridine-2-carboxamide]: the IC50 is 19 nM.

As for `COc1cc(Oc2ccc(F)cc2Cl)c(C(=O)Nc2ccc(C(N)=O)nc2)c(F)c1C(F)(F)F` [Compound 367, 5-[[6-(2-chloro-4-fluoro-phenoxy)-2-fluoro-4-methoxy-3-(trifluoromethyl)benzoyl]amino]pyridine-2-carboxamide], the IC50 was found to be 330 nM.

Consider `COc1cc(OC(F)(F)F)ccc1Oc1cc(OC)c(Cl)c(F)c1C(=O)Nc1ccnc(C(N)=O)c1` [Compound 266, 4-[[3-chloro-2-fluoro-4-methoxy-6-[2-methoxy-4-(trifluoromethoxy)phenoxy]benzoyl]amino]pyridine-2-carboxamide], for which the IC50 was 2.8 nM.

`Cc1nc(C(F)(F)F)ccc1Oc1ccc(C(F)(F)F)c(F)c1C(=O)Nc1ccnc(C(N)=O)c1` [Compound 26, 4-[[2-fluoro-6-[[2-methyl-6-(trifluoromethyl)-3-pyridyl]oxy]-3-(trifluoromethyl)benzoyl]amino]pyridine-2-carboxamide]: the IC50 came out at 1300 nM.

`COc1cc(OC(F)(F)F)ccc1Oc1ccc(C2CCC2)c(C)c1C(=O)Nc1ccnc(C(N)=O)c1` [Compound 257, 4-[[3-cyclobutyl-6-[2-methoxy-4-(trifluoromethoxy)phenoxy]-2-methyl-benzoyl]amino]pyridine-2-carboxamide]: the IC50 was determined as 8 nM.

Consider `COc1c(Oc2ccc(C(F)(F)F)c(Cl)c2C(=O)Nc2ccnc(C(N)=O)c2)ccc(F)c1F` [Compound 193], for which the IC50 came to 6 nM.

For the compound `NC(=O)c1cc(NC(=O)c2c(Oc3ccc(OC4CCCCC4)cc3)ccc(C(F)(F)F)c2F)ccn1` [Compound 35, 4-[[6-[4-(cyclohexoxy)phenoxy]-2-fluoro-3-(trifluoromethyl)benzoyl]amino]pyridine-2-carboxamide], the IC50 came out at 510 nM.

In the case of `[2H]C([2H])([2H])Oc1cc(OC(F)(F)F)ccc1Oc1ccc(C(F)(F)F)cc1C(=O)Nc1ccnc(C(N)=O)c1` [Compound 105, 4-[[2-[2-(trideuteriomethoxy)-4-(trifluoromethoxy)phenoxy]-5-(trifluoromethyl)benzoyl]amino]pyridine-2-carboxamide], the IC50 was 73 nM.

`COc1cc(F)ccc1Oc1cc(C(F)(F)F)ccc1C(=O)Nc1ccnc(C(N)=O)c1` [Compound 159, 4-[[2-(4-fluoro-2-methoxy-phenoxy)-4-(trifluoromethyl)benzoyl]amino]pyridine-2-carboxamide]: the IC50 is greater than 3000 nM.

In the case of `COc1cc(OC(F)(F)F)ccc1Oc1cc(OC(F)(F)F)cc(C)c1C(=O)Nc1ccc(C(N)=O)nc1` [Compound 245, 5-[[2-[2-methoxy-4-(trifluoromethoxy)phenoxy]-6-methyl-4-(trifluoromethoxy)benzoyl]amino]pyridine-2-carboxamide], the IC50 amounted to 333 nM.

As for `CC(C)Oc1ccc(Oc2cccc(C(F)(F)F)c2C(=O)Nc2ccnc(C(N)=O)c2)c(F)c1` [Compound 81, 4-[[2-(2-fluoro-4-isopropoxy-phenoxy)-6-(trifluoromethyl)benzoyl]amino]pyridine-2-carboxamide], the IC50 was greater than 3000 nM.
